Results published in patent US12017995B2, “Crystalline forms and salt forms of a kinase inhibitor” (Exelixis, Inc., priority 2018, dated 2024).
Entries after “also recorded” stand apart in the source; their conditions may differ. Like-named read-outs stand apart in the source and are kept apart here.

Tests used:
Assay type in all cases: physicochemical
[1] = Dynamic vapor sorption (DVS); details: for crystalline form of post-DVS sample by XRPD: after sorption/desorption; for water vapor uptake / weight gain by DVS: from 5% to 95% RH
Procedure: Dynamic Vapor Sorption (DVS)
a. VTI: Automated vapor sorption (VS) data were collected on a VTI SGA-100 Vapor Sorption Analyzer. NaCl and PVP were used as calibration standards. Samples were dried prior to analysis. Sorption and desorption data were collected over a range from 5% to 95% RH at 10% RH increments under a nitrogen purge. The equilibrium criterion used for analysis was less than 0.0100% weight change in 5 minutes with a maximum equilibration time of 3 hours. Data were not corrected for the initial moisture content of the samples.
b. Intrinsic: Automated vapor sorption (VS) data were collected on a Surface Measurement System DVS Intrinsic instrument. Samples were not dried prior to analysis. Sorption and desorption data were collected over a range from 5% to 95% RH at 10% RH increments under a nitrogen purge. The equilibrium criterion used for analysis was less than 0.0100% weight change in 5 minutes with a maximum equilibration time of 3 hours. Data were not corrected for the initial moisture content of the samples.

[2] = pKa and log P determination (Pion Inc./Sirius Analytical Instruments Ltd.)
Procedure: pKa and log P Determination: pKa and log P determination were performed by Pion Inc./Sirius Analytical Instruments Ltd. in East Sussex, United Kingdom.

[3] = Stability testing in open vials, 75% RH chamber at 40° C., analysed by PLM and XRPD; details: 15 days / approximately 2 weeks, XRPD
Procedure: (§1) The physical stability of Hemifumarate Form B was investigated. Compound 1 Hemifumarate Form B was slurried in water at ambient conditions for approximately 24 hours. In a separate experiment, the material was repeatedly washed with acetone.
Stability Testing: Various Compound 1 salts were placed in open vials within a 75% RH chamber (saturated sodium chloride solution). The RH chamber was placed in a 40° C. oven for 15-16 days. Samples were analyzed by PLM and XRPD upon the end of the duration.

[4] = Disproportionation check: water slurry at ambient conditions and repeated acetone wash, XRPD of recovered material
Procedure: as §1
Solids were then collected by vacuum filtration and analyzed by XRPD.

| hygroscopicity by DVS (class) ([1]; 5% to 95% RH) | crystalline form of post-DVS sample by XRPD [1] | water vapor uptake / weight gain by DVS [1] | pKa [2] | logP ([2]; read-out: cationic log P) | logP ([2]; read-out: neutral log P) | hygroscopicity by DVS ([1]; DVS isotherm) | weight gain/loss through the DVS sorption/desorption experiment ([1]; sorption/desorption 5% to 95% RH, without hysteresis) | SMILES | physical stability at 40° C. and 75% RH [3] | disproportionation of the salt in acetone ([4]; repeatedly washed with acetone) | disproportionation of the salt in water ([4]; slurried in water at ambient conditions for approximately 24 hours) |
| --- | --- | --- | --- | --- | --- | --- | --- | --- | --- | --- | --- |
| Limited | no change in crystalline form | ~0.91 wt % | 5.43 ± 0.4 | 1.79 ± 0.8 | 4.5 ± 0.5 |  |  | CNC(=O)c1cc2c(Oc3ccc(NC(=O)C4(C(=O)Nc5ccc(F)cc5)CC4)cc3)ccnc2cc1OC [Compound 1 Form A, 1-N′-(4-Fluorophenyl)-1-N-[4-[7-methoxy-6-(methylcarbamoyl)quinolin-4-yl]oxyphenyl]cyclopropane-1,1-dicarboxamide] |  |  |  |
|  | remained unchanged | about 0.2 wt % |  |  |  | not hygroscopic | less than 0.2% | CNC(=O)c1cc2c(Oc3ccc(NC(=O)C4(C(=O)Nc5ccc(F)cc5)CC4)cc3)ccnc2cc1OC [Compound 1 Hemifumarate Form B] | physically stable; also recorded: did not change by XRPD | disproportionation was not evident; also recorded: did not cause disproportionation | disproportionation was not evident; also recorded: did not cause disproportionation |
